From US6906205B2, “Spiro and dispiro 1,2,4-trioxolane antimalarials” (Medicines for Malaria Venture MMV, priority 2002, dated 2005)
In brackets after ≈: the same amount, converted by molar mass.

Tests used:
[1] = test system: ANKA strain of Plasmodium berghei; assay: single dose ED50/ED90/ED99 determinations in infected mice; format: in vivo; settings: single dose po in SSV, mice, percent reduction in parasitemia on day three post-infection
Method: In the single dose ED50/ED90/ED99 determinations, Moro SPF or NMRI mice (group of three) infected with the ANKA strain of Plasmodium berghei were treated on day one post-infection. […] The SSV consists of 0.5% w/v CMC, 0.5% v/v benzyl alcohol, 0.4% v/v Tween 80, and 0.9% w/v sodium chloride in water. Antimalarial activity was measured by percent reduction in parasitemia on day three post-infection. The ED50/ED90 values were calculated by nonlinear fitting.

[2] = test system: ANKA strain of P. berghei; assay: single dose STI in vivo screen in infected mice; parameters: species or system Plasmodium berghei; settings: for Activity (%) po / Activity (%) sc / Activity (%) SSVpo / Activity (%) 3 mg/kg SSV po / Activity (%) 10 mg/kg SSV po: percent reduction in parasitemia day 3 post-infection; for Activity (%) po / Survival (days) po: single 10 mg/kg po in 3% ethanol and 7% Tween 80; for Activity (%) po / Activity (%) sc / Activity (%) SSVpo: mice; for Activity (%) sc / Survival (days) sc: single 10 mg/kg sc in 3% ethanol and 7% Tween 80; for Activity (%) SSVpo: single po dose in standard suspending vehicle (SSV); for Survival (days) po / Survival (days) sc / Survival (days) SSVpo: untreated control 5.6 ± 0.3; for Survival (days) SSVpo: single po dose in SSV; for Activity (%) 3 mg/kg SSV po: single 3 mg/kg po in SSV
Outline: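 Groups of 3-5 Moro SPF or NMRI mice infected with the ANKA strain of P. berghei received a single dose of trioxolane on day one post-infection. The compound was given in 3% ethanol and 7% Tween 80 or in SSV (0.5% w/v CMC, 0.5% v/v benzyl alcohol, 0.4% v/v Tween 80, 0.9% w/v sodium chloride in water). Antimalarial activity was scored as percent reduction in parasitemia on day three and as survival time versus untreated controls. Survival to day 30 counted as cure.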

[3] = test system: P. falciparum NF54 strain (sensitive to standard antimalarials); assay: semiautomated microdilution assay, [3H]-hypoxanthine incorporation, NF54 strain; format: cell-based, Plasmodium falciparum; settings: NF54 strain, 72 h incubation
Outline: (§1)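 IC50 values come from logit regression of semiautomated microdilution data obtained on intraerythrocytic parasites drawn from asynchronous cultures.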

[4] = test system: P. falciparum K1 strain (Thailand resistant to chloroquine); assay: semiautomated microdilution assay, [3H]-hypoxanthine incorporation, K1 strain; format: cell-based, Plasmodium falciparum; settings: K1 strain, 72 h incubation
Outline: as §1

[5] = test system: P. berghei ANKA strain; assay: treatment: 3x3 mg/kg and 3x1 mg/kg po divided doses in infected mice; format: in vivo, Plasmodium berghei; settings: for infected mice cured: 3×3 mg/kg po on days 1, 2, 3 post-infection; for infected mice cured / activity (percent reduction of parasitemia): SSV; for activity (percent reduction of parasitemia): 3×1 mg/kg po on days 1, 2, 3 post-infection; for Activity (%) p.o. SSV: percent reduction of parasitemia day 4
Method: Moro NMRI male mice (Fü Albino specific pathogen free) weighing 18±2 g were infected intravenously (i.v.) with 2×10^7 P. berghei ANKA strain-infected erythrocytes from donor mice on day 0 of the experiment. From donor mice with circa 30% parasitemia, heparinized blood was taken and diluted in physiological saline to 10^8 parasitized erythrocytes per ml. An aliquot (0.2 ml) of this suspension was injected i.v. into experimental and control groups of mice. In untreated control mice, parasitemia rose regularly to 40 to 50% by day 3 post-infection and 70 to 80% by day 4 post-infection. The mice died between days 5 and 7 post-infection. Throughout the experiments, mice were kept in groups of three or five animals in Makrolon type II cages in an air-conditioned animal room at 22 to 23° C. A diet with p-aminobenzoic acid (PABA) of 45 mg (NAFAG FUTTER© food N^o 9009 PAB-45) per kg of body weight, and tap water is available ad libitum.
OZ compounds were prepared at an appropriate concentration, either as a solution or a suspension containing SSV (0.5% w/v CMC, 0.5% v/v benzyl alcohol, 0.4% v/v Tween 80, and 0.9% w/v sodium chloride in water). They were administered per os (p.o.) in a total volume of 0.01 ml per gram of mouse. The activity of the compound was determined by a variety of methods outlined in subsequent sections. Survival time was also recorded, and survival to day 30 post-infection was considered to be a cure.
The second experiment consists of administration of divided 3×3 mg/kg and 3×1 mg/kg po doses administered on days 1, 2, and 3 post-infection. On day 4 post-infection, blood smears of all animals were prepared and stained with Giemsa. Parasitemia was determined microscopically, and the difference between the mean value of the control group (taken as 100%) and those of the experimental groups was calculated and expressed as percent reduction. Compounds were administered orally in the SSV vehicle.

[6] = test system: Schistosoma mansoni adult schistosomes (49-day-old); assay: effect on adult schistosomes (49-day-old) in mice; format: in vivo; settings: single 400 mg/kg per os
Method: Mice were infected with 100 Schistosoma mansoni cercariae […]. Each group was treated per os with OZ compounds at single doses of 200, 400, and 600 mg/kg. […] All groups were killed 4 weeks after treatment and the liver and intestine were removed and separated. The liver and intestine were compressed and alive male and female worms could be seen and counted.

[7] = test system: Schistosoma mansoni 21-day-old schistosomules; assay: effect on 21-day-old schistosomules in mice; format: in vivo; settings: single 200 mg/kg per os, female mice
Method: All groups were killed 4 weeks after treatment and the liver and intestine were removed and separated. The liver and intestine were compressed and alive male and female worms could be seen and counted. The effect of the compounds was evaluated by mean total and female worm burden.

[8] = 3 × 1 mg/kg days 1, 2, 3 post-infection
[9] = 3 × 3 mg/kg days 1, 2, 3 post-infection

## C[C@H]1[C@@H](OCc2ccc(C(=O)O)cc2)O[C@@H]2O[C@@]3(C)CC[C@H]4[C@H](C)CC[C@@H]1[C@@]24OO3 [Artelinate]
[1]
  ED50: 4.8 mg/kg
  ED90: 10 mg/kg
  ED99: 18 mg/kg

## c1ccc(C2CCC3(CC2)OOC2(O3)C3CC4CC(C3)CC2C4)cc1 (centres unmarked) [OZ27]
[1]
  ED90: 5.7 mg/kg
  ED99: 9.9 mg/kg
[2]
  Activity (%) po: 99.97%
  Activity (%) sc: 99.92%
  Activity (%) SSVpo: 96%
  Survival (days) po: 12.6 days
  Survival (days) sc: 17.1 days
  Survival (days) SSVpo: 8.0 days
[3]; Plasmodium falciparum, read-out: IC50 (ng/ml) NF54
  IC50: 4.8 ng/mL (≈ 14.1 nM)
[4]; Plasmodium falciparum, read-out: IC50 (ng/ml) K1
  IC50: 2.2 ng/mL (≈ 6.46 nM)

## COCC(=O)N1CCC2(CC1)OOC1(O2)C2CC3CC(C2)CC1C3 (centres unmarked) [OZ113]
[1]
  ED50: 3.6 mg/kg
  ED90: 9.0 mg/kg
  ED99: 19 mg/kg
[2]
  Activity (%) po: 92%
  Activity (%) sc: 89%
  Activity (%) SSVpo: 96%
  Survival (days) po: 7.3 days
  Survival (days) sc: 7.3 days
  Survival (days) SSVpo: 8.0 days
[3]
  IC50 (ng/ml) NF54: 0.20 ng/mL (≈ 0.593 nM)
[4]
  IC50 (ng/ml) K1: 0.95 ng/mL (≈ 2.82 nM)

## NC[C@H]1CC[C@]2(CC1)OOC1(O2)C2CC3CC(C2)CC1C3 (some centres unmarked) [OZ181]
[1]
  ED50: 0.63 mg/kg
  ED90: 1.8 mg/kg
  ED99: 4.0 mg/kg
[2]; 10 mg/kg
  Activity (%) po: 99.98%
  Survival (days) po: 9.0 days
  Survival (days) sc: 11.0 days
[2]
  Activity (%) sc: 100%
  Activity (%) SSVpo: 99.91%
  Survival (days) SSVpo: 10.0 days

## c1cc(OC[C@H]2CC[C@]3(CC2)OO[C@]2(O3)C3CC4CC(C3)CC2C4)ccn1 [OZ301]
[5]
  infected mice cured: ⅕
[2]
  Activity (%) 3 mg/kg SSV po: 97%
[2]; single 10 mg/kg po in SSV
  Activity (%) 10 mg/kg SSV po: 100%

## O=C(NC[C@H]1CC[C@]2(CC1)OO[C@]1(O2)C2CC3CC(C2)CC1C3)N1CCNCC1 [OZ329]
[6]
  % reduction of adult worms growth at day 49 after per os application of 400 mg/kg, TWR (%): 15%
  adult worms at day 49, per os 400 mg/kg, DEAD WORM (%): 6%
[5]
  activity (percent reduction of parasitemia): greater than 99%
  infected mice cured: ⅖
[3]
  IC50 (ng/ml) NF54: 0.68 ng/mL (≈ 1.68 nM)
[7]
  % reduction of schistosomule growth at day 21 after per os application of 200 mg/kg, FWR (%): 90%
  % reduction of schistosomule growth at day 21 after per os application of 200 mg/kg, TWR (%): 90%
[4]
  IC50 (ng/ml) K1: 0.43 ng/mL (≈ 1.06 nM)

## NCCC(=O)NC[C@H]1CC[C@]2(CC1)OO[C@]1(O2)C2CC3CC(C2)CC1C3 [OZ336]
[5]
  activity (percent reduction of parasitemia): greater than 99%
[2]
  Activity (%) 3 mg/kg SSV po: 98%
[2]; single 10 mg/kg po in SSV
  Activity (%) 10 mg/kg SSV po: 99.93%
  Survival (days) 10 mg/kg SSV po: 9.2 days

## NC1CCN(C(=O)C[C@H]2CC[C@]3(CC2)OO[C@]2(O3)C3CC4CC(C3)CC2C4)CC1 [OZ339]
[5]
  infected mice cured: ⅗
[2]
  Activity (%) 3 mg/kg SSV po: 99.65%
[2]; single 10 mg/kg po in SSV
  Activity (%) 10 mg/kg SSV po: 99.95%

## Oc1ccc(C2CCC3(CC2)OOC2(O3)C3CC4CC(C3)CC2C4)cc1 (centres unmarked) [compound 288]
[5]; [8]
  Survival (days) p.o. SSV: 8.4 days
  Activity (%) p.o. SSV: 49%
[5]; [9]
  Survival (days) p.o. SSV: 10.2 days
  Activity (%) p.o. SSV: 99%

## CCOC(=O)CNCC1CCC2(CC1)OOC1(O2)C2CC3CC(C2)CC1C3.CS(=O)(=O)O (centres unmarked) [compound 290]
[5]; [8]
  Survival (days) p.o. SSV: 6.8 days
  Activity (%) p.o. SSV: 14%
[5]; [9]
  Survival (days) p.o. SSV: 10.6 days
  Activity (%) p.o. SSV: 93%
